Legend:
[1] = test system: A549; assay: Cytotoxicity against human A549 cells after 72 hrs by MTT assay; format: functional, cell-based; settings: A549, 72 h
[2] = test system: HCT-116; assay: Cytotoxicity against human HCT116 cells after 72 hrs by MTT assay; format: functional, cell-based; settings: HCT-116, 72 h
[3] = test system: MGC-803; assay: Cytotoxicity against human MGC803 cells after 72 hrs by MTT assay; format: functional, cell-based; settings: MGC-803, 72 h
[4] = test system: HepG2; assay: Cytotoxicity against human HepG2 cells after 72 hrs by MTT assay; format: functional, cell-based; settings: HepG2, 72 h
[5] = test system: NCI-H460; assay: Cytotoxicity against human NCI-H460 cells after 72 hrs by MTT assay; format: functional, cell-based; settings: NCI-H460, 72 h
[6] = test system: NCI-H460; assay: Induction of apoptosis in human NCI-H460 cells assessed as early apoptotic cells at 45 uM after 24 hrs by Annexin V-FITC/propidium iodide staining-based flow cytometry (reference value: 1.5%); format: functional
[7] = test system: NCI-H460; assay: Cell cycle arrest in human NCI-H460 cells assessed as accumulation at diploid G2 phase at IC50 after 48 hrs by propidium iodide staining-based FACS analysis (reference value: 8.14%); format: functional
[8] = test system: NCI-H460; assay: Cell cycle arrest in human NCI-H460 cells assessed as accumulation at diploid S phase at IC50 after 48 hrs by propidium iodide staining-based FACS analysis (reference value: 23.27%); format: functional
[9] = test system: NCI-H460; assay: Cell cycle arrest in human NCI-H460 cells assessed as accumulation at diploid G1 phase at IC50 after 48 hrs by propidium iodide staining-based FACS analysis (reference value: 68.60%); format: functional
[10] = test system: NCI-H460; assay: Induction of apoptosis in human NCI-H460 cells assessed as late apoptotic cells at 45 uM after 24 hrs by Annexin V-FITC/propidium iodide staining-based flow cytometry (reference value: 0.8%); format: functional

| Structure (SMILES) | IC50 [1] | IC50 [2] | IC50 [3] | IC50 [4] | IC50 [5] | Activity [6] | Activity [7] | Activity [8] | Activity [9] | Activity [10] |
| --- | --- | --- | --- | --- | --- | --- | --- | --- | --- | --- |
| CC(C)C1=C[C@]23CC[C@@H]4[C@](C)(CCC[C@@]4(C)C(=O)O)[C@H]2C[C@H]1[C@H]1C(=O)OC(=O)[C@H]13 | 81.2 µM | 98.7 µM | 61.8 µM | > 100 µM | > 100 µM | – | – | – | – | – |
| O=c1[nH]cc(F)c(=O)[nH]1 [FLUOROURACIL] | 20.1 µM | 8.32 µM | 15.3 µM | 19.4 µM | 23.3 µM | 16.8% | 0% | 28.07% | 71.93% | 6.5% |

— ChEMBL document CHEMBL3091442, “Synthesis and antitumor activity evaluation of maleopimaric acid N-aryl imide atropisomers” (Bioorg Med Chem Lett, 2013)
